# Experimental data as given in BindingDB's records for doi:10.1021/jm00113a023 (Abbott Laboratories, 1991).
# *1 amine or outer side, *2 acyl side, *3 side chain or, on linkers, in order; H or OH if unused. Where a SMILES comes first, the peptide text is derived from it. Side-chain parts run from the residue outwards. [ ]: non-standard residue; d: D form. The star is where a group is joined. NH(1-naphthyl) = c1ccc2c(N*)cccc2c1; NHPh(4-CF3) = FC(F)(F)c1ccc(N*)cc1; hCit = NC(=O)NCCCC[C@H](N)C(=O)O; NH(2-Me-phenyl) = Cc1ccccc1N*; 3Abz = Nc1cccc(C(=O)O)c1; Orn = NCCC[C@H](N)C(=O)O; βNA = c1ccc2cc(N*)ccc2c1; Boc = CC(C)(C)OC(=O)*; X1 = Clc1cccc(Cl)c1N*; X7 = Clc1cccc(N*)c1Cl; CO = O=C([*:1])[*:2]; X2 = CC(C)c1ccccc1N*
# Molecular target: Gastrin/cholecystokinin type B receptor (Cavia porcellus)
# Experiment: Binding affinity for Cholecystokinin type B receptor in guinea pig cortex by using [125I]BH-CCK-8 as radioligand
row,Compound,IC50
1,Cc1ccccc1NC(=O)NCCC[C@H](NC(=O)[C@H](Cc1c[nH]c2ccccc12)NC(=O)OC(C)(C)C)C(=O)N[C@@H](CC(=O)O)C(=O)N[C@@H](Cc1ccccc1)C(N)=O [3-[2-[2-tert-Butoxycarbonylamino-3-(1H-indol-3-yl)-propionylamino]-5-(3-o-tolyl-ureido)-pentanoylamino]-N-(1-carbamoyl-2-phenyl-ethyl)-succinamic acid] (Boc-W[Orn]([CO-NH(2-Me-phenyl)])DF-NH2),15 µM
2,CC(C)(C)OC(=O)N[C@@H](Cc1c[nH]c2ccccc12)C(=O)N[C@@H](CCCCNC(=O)Nc1cccc2ccccc12)C(=O)N[C@@H](CC(=O)O)C(=O)N[C@@H](Cc1ccccc1)C(N)=O [3-[2-[2-tert-Butoxycarbonylamino-3-(1H-indol-3-yl)-propionylamino]-6-(3-naphthalen-1-yl-ureido)-hexanoylamino]-N-(1-carbamoyl-2-phenyl-ethyl)-succinamic acid] (Boc-WK([CO-NH(1-naphthyl)])DF-NH2),11 µM
3,CC(C)(C)OC(=O)N[C@@H](Cc1c[nH]c2ccccc12)C(=O)N[C@@H](CCCCNC(=O)Nc1ccc2ccccc2c1)C(=O)N[C@@H](CC(=O)O)C(=O)N[C@@H](Cc1ccccc1)C(N)=O [3-[2-[2-tert-Butoxycarbonylamino-3-(1H-indol-3-yl)-propionylamino]-6-(3-naphthalen-2-yl-ureido)-hexanoylamino]-N-(1-carbamoyl-2-phenyl-ethyl)-succinamic acid] (Boc-WK([CO-βNA])DF-NH2),3.2 µM
4,"CC(C)(C)OC(=O)N[C@@H](Cc1c[nH]c2ccccc12)C(=O)N[C@@H](CCCCNC(=O)Nc1c(Cl)cccc1Cl)C(=O)N[C@@H](CC(=O)O)C(=O)N[C@@H](Cc1ccccc1)C(N)=O [3-{2-[2-tert-Butoxycarbonylamino-3-(1H-indol-3-yl)-propionylamino]-6-[3-(2,6-dichloro-phenyl)-ureido]-hexanoylamino}-N-(1-carbamoyl-2-phenyl-ethyl)-succinamic acid] (Boc-WK([CO-X1])DF-NH2)",7 µM
5,CC(C)c1ccccc1NC(=O)NCCCC[C@H](NC(=O)[C@H](Cc1c[nH]c2ccccc12)NC(=O)OC(C)(C)C)C(=O)N[C@@H](CC(=O)O)C(=O)N[C@@H](Cc1ccccc1)C(N)=O [3-{2-[2-tert-Butoxycarbonylamino-3-(1H-indol-3-yl)-propionylamino]-6-[3-(2-isopropyl-phenyl)-ureido]-hexanoylamino}-N-(1-carbamoyl-2-phenyl-ethyl)-succinamic acid] (Boc-WK([CO-X2])DF-NH2),5.7 µM
6,CC(C)(C)OC(=O)N[C@@H](Cc1c[nH]c2ccccc12)C(=O)N[C@@H](CCCCNC(=O)Nc1ccc(C(F)(F)F)cc1)C(=O)N[C@@H](CC(=O)O)C(=O)N[C@@H](Cc1ccccc1)C(N)=O [3-{2-[2-tert-Butoxycarbonylamino-3-(1H-indol-3-yl)-propionylamino]-6-[3-(4-trifluoromethyl-phenyl)-ureido]-hexanoylamino}-N-(1-carbamoyl-2-phenyl-ethyl)-succinamic acid] (Boc-WK([CO-NHPh(4-CF3)])DF-NH2),0.85 µM
7,CC(C)(C)OC(=O)N[C@@H](Cc1c[nH]c2ccccc12)C(=O)N[C@@H](CCCCNC(N)=O)C(=O)N[C@@H](CC(=O)O)C(=O)N[C@@H](Cc1ccccc1)C(N)=O [3-{2-[2-tert-Butoxycarbonylamino-3-(1H-indol-3-yl)-propionylamino]-6-ureido-hexanoylamino}-N-(1-carbamoyl-2-phenyl-ethyl)-succinamic acid] (Boc-W[hCit]DF-NH2),1 µM

# Molecular target: Gastrin/cholecystokinin type B receptor (Cavia porcellus)
# Experiment: as above
# Remark: another data set of the same source
row,Compound,IC50
1,CC(C)(C)OC(=O)N[C@@H](Cc1c[nH]c2ccccc12)C(=O)N[C@@H](CCCC/N=C(\S)Nc1ccccc1Cl)C(=O)N[C@@H](CC(=O)O)C(=O)N[C@@H](Cc1ccccc1)C(N)=O,2.9 µM

# Molecular target: Gastrin/cholecystokinin type B receptor (Cavia porcellus)
# Experiment: Binding affinity towards cholecystokinin type B receptor in guinea pig cortex by using [125I]BH-CCK-8 as radioligand
row,Compound,IC50
1,COC(=O)c1cccc(NC(=O)NCCCC[C@H](NC(=O)[C@H](Cc2c[nH]c3ccccc23)NC(=O)OC(C)(C)C)C(=O)N[C@@H](CC(=O)O)C(=O)N[C@@H](Cc2ccccc2)C(N)=O)c1 (Boc-WK([CO-3Abz-OMe])DF-NH2),1.4 µM
2,"CC(C)(C)OC(=O)N[C@@H](Cc1c[nH]c2ccccc12)C(=O)N[C@@H](CCCCNC(=O)Nc1cccc(Cl)c1Cl)C(=O)N[C@@H](CC(=O)O)C(=O)N[C@@H](Cc1ccccc1)C(N)=O [3-{2-[2-tert-Butoxycarbonylamino-3-(1H-indol-3-yl)-propionylamino]-6-[3-(2,3-dichloro-phenyl)-ureido]-hexanoylamino}-N-(1-carbamoyl-2-phenyl-ethyl)-succinamic acid] (Boc-WK([CO-X7])DF-NH2)",3 µM
